Experimental data published in ChEMBL document CHEMBL1201862, “PubChem BioAssay data set” (2004).
Structures can show the parent of a compound that is named as a salt.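 Compound exposure: 48 hours, 5 concentrations, 96-well plates. The concentration for 50% growth inhibition is given as GI50.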 Calls of active or inactive are those of the source. No stated cut-off is given here; in the data, active = GI50 up to about 1.1 µM and inactive = higher.

Key:
Assay in all cases: inhibition of tumour cell growth, NCI panel, 48 h
[1] = system: HCC 2998
[2] = system: RXF 393
[3] = system: K562
[4] = system: HCT-116
[5] = system: LOX IMVI
[6] = system: COLO 205
[7] = system: HT-29
[8] = system: HL-60
[9] = system: HCT-15
[10] = system: TK-10
[11] = system: Hs-578T
[12] = system: SK-MEL-2
[13] = system: UACC-257
[14] = system: RPMI-8226
[15] = system: NCI-H226
[16] = system: SNB-19
[17] = system: KM12
[18] = system: SN12C
[19] = system: SR

Structure (SMILES) | GI50 [1] | GI50 [2] | GI50 [3] | GI50 [4] | GI50 [5] | GI50 [6] | GI50 [7] | GI50 [8] | GI50 [9] | GI50 [10] | GI50 [11] | GI50 [12] | GI50 [13] | GI50 [14] | GI50 [15] | GI50 [16] | GI50 [17] | GI50 [18] | GI50 [19]
Cc1cc(S(=O)(=O)Nc2nc(N)n(C)n2)c(S)cc1Cl | > 10 µM (inactive) | > 10 µM (inactive) | > 10 µM (inactive) | > 10 µM (inactive) | > 10 µM (inactive) | > 10 µM (inactive) | > 10 µM (inactive) | > 10 µM (inactive) | > 10 µM | > 10 µM (inactive) | > 10 µM (inactive) | > 10 µM (inactive) | > 10 µM (inactive) | > 10 µM (inactive) | > 10 µM (inactive) | > 10 µM (inactive) | > 10 µM (inactive) | > 10 µM (inactive) | –
O=[N+]([O-])c1cc(Cl)ccc1Sc1ccccc1 | 87.9 µM (inactive) | 80.2 µM (inactive) | > 100 µM (inactive) | 34.3 µM (inactive) | > 100 µM (inactive) | > 100 µM (inactive) | 46.8 µM (inactive) | 61.7 µM (inactive) | 72.3 µM | > 100 µM (inactive) | > 100 µM (inactive) | 44.8 µM (inactive) | > 100 µM (inactive) | > 100 µM (inactive) | 34.8 µM (inactive) | > 100 µM (inactive) | 98.6 µM (inactive) | 77.4 µM (inactive) | –
COc1cccc(-c2cc(O)c3cc(N4CCOCC4)ccc3n2)c1 | 0.0656 µM (active) | – | 0.0212 µM (active) | 0.0221 µM (active) | 0.049 µM (active) | 0.0204 µM (active) | – | 0.0194 µM (active) | 0.0383 µM | 4.26 µM (inactive) | 0.0184 µM (active) | 0.0313 µM (active) | 0.0559 µM (active) | 0.361 µM (active) | 0.0383 µM (active) | 0.0543 µM (active) | 0.0424 µM (active) | 0.0678 µM (active) | 0.0158 µM (active)
CO[C@@]12C[C@@H](C)[C@]34O[C@H]3C[C@]3(C)O[C@]43CC1=C(C)C(=O)O2 | > 100 µM (inactive) | – | > 100 µM (inactive) | > 100 µM (inactive) | > 100 µM (inactive) | > 100 µM (inactive) | > 100 µM (inactive) | – | > 100 µM | > 100 µM (inactive) | > 100 µM (inactive) | > 100 µM (inactive) | > 100 µM (inactive) | > 100 µM (inactive) | > 100 µM (inactive) | > 100 µM (inactive) | > 100 µM (inactive) | > 100 µM (inactive) | –
O=C(O)C(C(C(=O)O)P(=O)(O)O)P(=O)(O)O (stereo not given) | > 100 µM (inactive) | – | > 100 µM (inactive) | > 100 µM (inactive) | > 100 µM (inactive) | > 100 µM (inactive) | > 100 µM (inactive) | > 100 µM (inactive) | > 100 µM | > 100 µM (inactive) | > 100 µM (inactive) | > 100 µM (inactive) | – | > 100 µM (inactive) | > 100 µM (inactive) | > 100 µM (inactive) | > 100 µM (inactive) | – | > 100 µM (inactive)
O=C1Nc2ccccc2/C1=C\c1c(Cl)nc2n1CCS2 | 17.9 µM (inactive) | 22.6 µM (inactive) | 21.3 µM (inactive) | 23.6 µM (inactive) | 31.8 µM (inactive) | 17.9 µM (inactive) | 31.7 µM (inactive) | 16.8 µM (inactive) | 22.5 µM | 19.7 µM (inactive) | 16.6 µM (inactive) | 14.1 µM (inactive) | 13.7 µM (inactive) | 27.7 µM (inactive) | – | 35.6 µM (inactive) | 17.9 µM (inactive) | 24.9 µM (inactive) | –
CC1=CC(=O)C[C@]2(C)[C@@H](O)CC(C(C)CO)C[C@@H]12 (stereo not given in full) | > 100 µM (inactive) | > 100 µM (inactive) | – | > 100 µM (inactive) | > 100 µM (inactive) | > 100 µM (inactive) | > 100 µM (inactive) | > 100 µM (inactive) | > 100 µM | > 100 µM (inactive) | – | > 100 µM (inactive) | > 100 µM (inactive) | – | > 100 µM (inactive) | > 100 µM (inactive) | > 100 µM (inactive) | > 100 µM (inactive) | –
CNC1=CC(=O)C2=C(C1=O)[C@H]1CC[C@]3(C)C(=O)CC[C@H]3[C@@H]1CC2 | 16 µM (inactive) | 15.2 µM (inactive) | 12.6 µM (inactive) | 16.9 µM (inactive) | 4.54 µM (inactive) | 13.7 µM (inactive) | – | – | 12.4 µM | 62.4 µM (inactive) | – | 2.63 µM (inactive) | 13.2 µM (inactive) | 17.3 µM (inactive) | 12.4 µM (inactive) | 17.7 µM (inactive) | 7.43 µM (inactive) | 19.9 µM (inactive) | 14.1 µM (inactive)
O=C1CCCC1C(=O)Nc1ccc2ccccc2c1 (stereo not given) | > 100 µM (inactive) | 44.5 µM (inactive) | 53.5 µM (inactive) | > 100 µM (inactive) | > 100 µM (inactive) | > 100 µM (inactive) | 55.7 µM (inactive) | 35.6 µM (inactive) | > 100 µM | > 100 µM (inactive) | – | > 100 µM (inactive) | > 100 µM (inactive) | 59.2 µM (inactive) | > 100 µM (inactive) | > 100 µM (inactive) | 84.9 µM (inactive) | > 100 µM (inactive) | > 100 µM (inactive)
COC(=O)/C=C/c1cc(OC)c2oc(-c3ccc(OC)c(OC)c3)c(C(=O)OC)c2c1 | > 100 µM (inactive) | – | > 100 µM (inactive) | – | > 100 µM (inactive) | > 100 µM (inactive) | > 100 µM (inactive) | > 100 µM (inactive) | > 100 µM | > 100 µM (inactive) | > 100 µM (inactive) | > 100 µM (inactive) | > 100 µM (inactive) | > 100 µM (inactive) | – | > 100 µM (inactive) | > 100 µM (inactive) | > 100 µM (inactive) | > 100 µM (inactive)
CCOC(=O)c1ccc(NCc2ccc3oc(=O)c(-c4ccccc4)nc3c2)cc1 | > 100 µM (inactive) | 8.36 µM (inactive) | 22.5 µM (inactive) | 29.8 µM (inactive) | 31.8 µM (inactive) | 23.2 µM (inactive) | 57.4 µM (inactive) | 3.94 µM (inactive) | 81.5 µM | – | – | > 100 µM (inactive) | 20.3 µM (inactive) | – | 94.2 µM (inactive) | > 100 µM (inactive) | > 100 µM (inactive) | > 100 µM (inactive) | 34.9 µM (inactive)
Cn1c(=O)c2nc(/N=N/Nc3nncs3)[nH]c2n(C)c1=O | > 100 µM (inactive) | > 100 µM (inactive) | > 100 µM (inactive) | > 100 µM (inactive) | > 100 µM (inactive) | > 100 µM (inactive) | > 100 µM (inactive) | – | > 100 µM | > 100 µM (inactive) | > 100 µM (inactive) | > 100 µM (inactive) | > 100 µM (inactive) | – | – | > 100 µM (inactive) | > 100 µM (inactive) | > 100 µM (inactive) | –
Clc1cccc(C2ON=C(c3ccccc3)N2C23CC4CC(CC(C4)C2)C3)c1Cl (stereo not given) | > 10 µM (inactive) | > 10 µM (inactive) | > 10 µM (inactive) | > 10 µM (inactive) | > 10 µM (inactive) | > 10 µM (inactive) | > 10 µM (inactive) | – | > 10 µM | > 10 µM (inactive) | > 10 µM (inactive) | > 10 µM (inactive) | > 10 µM (inactive) | > 10 µM (inactive) | > 10 µM (inactive) | > 10 µM (inactive) | > 10 µM (inactive) | > 10 µM (inactive) | –
Cc1c2ccccc2c(/C=N/NC(=O)CSCC(=O)N/N=C/c2c3ccccc3c(C)c3ccccc23)c2ccccc12 | 18.3 µM (inactive) | 16.3 µM (inactive) | 37.9 µM (inactive) | 55.6 µM (inactive) | > 57.4 µM (inactive) | – | > 39.3 µM (inactive) | > 68.7 µM (inactive) | > 100 µM | 29 µM (inactive) | 46 µM (inactive) | > 78.3 µM (inactive) | 31.6 µM (inactive) | 17.2 µM (inactive) | > 44.7 µM (inactive) | 47 µM (inactive) | > 56.4 µM (inactive) | 61.2 µM (inactive) | –
COc1ccc(OC)c(CC2CCc3nc(N)nc(N)c3C2)c1 (stereo not given) | 0.69 µM (active) | < 0.01 µM (active) | > 100 µM (inactive) | < 0.01 µM (active) | 0.0561 µM (active) | 10.2 µM (inactive) | 6.68 µM (inactive) | 3.58 µM (inactive) | < 0.0435 µM | 8.32 µM (inactive) | 23.7 µM (inactive) | 23.6 µM (inactive) | 5.78 µM (inactive) | 18.2 µM (inactive) | 20.9 µM (inactive) | 1.21 µM (inactive) | 1.56 µM (inactive) | 14.5 µM (inactive) | –
C#Cc1cccc(Nc2ncnc3cc(OCCOC)c(OCCOC)cc23)c1 [ERLOTINIB HYDROCHLORIDE] | – | – | – | 6.05 µM (inactive) | 4.34 µM (inactive) | 4.99 µM (inactive) | 27.2 µM (inactive) | – | 4.76 µM | – | 5.01 µM (inactive) | 4.11 µM (inactive) | > 100 µM (inactive) | 55.3 µM (inactive) | – | < 0.01 µM (active) | 18.2 µM (inactive) | < 0.01 µM (active) | –
O=[N+]([O-])C(C(Cl)=C(Cl)Cl)=C(N1CCOCC1)N1CCOCC1 | > 100 µM (inactive) | > 100 µM (inactive) | > 100 µM (inactive) | > 100 µM (inactive) | > 100 µM (inactive) | > 100 µM (inactive) | > 100 µM (inactive) | > 100 µM (inactive) | > 100 µM | > 100 µM (inactive) | 54.2 µM (inactive) | > 100 µM (inactive) | > 100 µM (inactive) | > 100 µM (inactive) | > 100 µM (inactive) | > 100 µM (inactive) | > 100 µM (inactive) | > 100 µM (inactive) | –
